According to patent US20100004248A1, “Use of a Nitric Oxide Synthase Modulator for the Treatment of Cardiac Indications” (priority 2005, published 2010):

Columns and labels:
[1] = target: T1, NOS3 (Mus musculus, UniProt P70313); experiment: NOS3 dimer/monomer by low-temperature SDS-PAGE in TAC hearts; type: in vivo; details: WT mice, TAC 3 weeks, oral co-treatment
T1 construct: from tissue; host or cells: mouse heart (myocardium) after sham or TAC surgery
T1 sequence (P70313 2-1202 limits assumed): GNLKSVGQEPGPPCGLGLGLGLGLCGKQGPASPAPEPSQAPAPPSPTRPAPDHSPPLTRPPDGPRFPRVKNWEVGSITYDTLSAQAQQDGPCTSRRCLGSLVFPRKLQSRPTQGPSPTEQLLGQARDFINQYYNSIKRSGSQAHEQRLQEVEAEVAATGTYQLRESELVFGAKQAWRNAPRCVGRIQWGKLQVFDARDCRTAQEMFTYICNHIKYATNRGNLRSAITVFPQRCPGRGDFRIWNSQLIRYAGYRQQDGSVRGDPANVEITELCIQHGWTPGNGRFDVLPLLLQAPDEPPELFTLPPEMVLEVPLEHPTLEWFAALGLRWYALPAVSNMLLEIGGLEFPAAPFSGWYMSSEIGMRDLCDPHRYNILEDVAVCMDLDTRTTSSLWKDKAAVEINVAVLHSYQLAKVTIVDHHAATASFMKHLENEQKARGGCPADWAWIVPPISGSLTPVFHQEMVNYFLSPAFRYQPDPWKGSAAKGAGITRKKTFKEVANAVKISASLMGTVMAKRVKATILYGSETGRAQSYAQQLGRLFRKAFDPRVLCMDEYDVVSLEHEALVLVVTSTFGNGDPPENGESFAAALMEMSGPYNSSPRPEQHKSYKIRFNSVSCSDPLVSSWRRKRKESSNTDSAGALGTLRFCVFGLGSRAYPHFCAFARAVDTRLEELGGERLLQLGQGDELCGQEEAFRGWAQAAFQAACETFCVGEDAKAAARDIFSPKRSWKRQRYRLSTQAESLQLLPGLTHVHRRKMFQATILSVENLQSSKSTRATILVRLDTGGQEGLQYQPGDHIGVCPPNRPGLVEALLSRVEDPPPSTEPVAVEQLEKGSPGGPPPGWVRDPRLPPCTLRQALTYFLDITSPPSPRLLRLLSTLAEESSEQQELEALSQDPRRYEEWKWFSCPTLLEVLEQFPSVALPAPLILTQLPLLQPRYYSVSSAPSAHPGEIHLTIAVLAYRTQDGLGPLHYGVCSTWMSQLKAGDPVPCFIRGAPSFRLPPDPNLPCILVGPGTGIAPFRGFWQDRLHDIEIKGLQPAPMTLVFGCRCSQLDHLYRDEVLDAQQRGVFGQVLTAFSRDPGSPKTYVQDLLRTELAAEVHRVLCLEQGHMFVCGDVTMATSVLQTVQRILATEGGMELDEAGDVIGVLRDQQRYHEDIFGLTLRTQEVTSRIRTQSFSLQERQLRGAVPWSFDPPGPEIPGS
Procedure: (§1) SDS-resistant NOS3 dimers and monomers were assayed using low-temperature SDS PAGE under reducing or non-reducing conditions, as described previously^7. NOS3 was immunoprecipitated as described^16 and the resulting samples added to fivefold Laemmli buffer (0.32 mol/l Tris-HCl, pH 6.8, 0.5 mol/l glycine, 10% SDS, 50% glycerol, and 0.03% bromophenol blue) in non-reducing gel (no 2-mercaptoethanol) to identify dimer dissociation due to reduced disulfide bridges. To provide fully denatured control lanes, samples were boiled for 15 minutes prior to loading. Electrophoresis was performed using Tris glycine 6% gels (Invitrogen Corp.), and gels and buffers maintained in an ice bath at 4° C. and stained (SimplyBlue, Invitrogen Corp.). Calcium dependent and independent NOS activity was determined from myocardial homogenates by [3H] L-arginine to [3H] citrulline conversion (Sigma-Aldrich) as described^16. An alternative approach involved more direct Western blot analysis without requiring initial NOS IP. Cold SDS-Page Western blot analysis was performed using a self-made […] SDS-Tris gel. After overnight running on ice, the gel was transferred for 3 h to nitrocellulose membrane. […] Bound antibodies were detected with horseradish peroxidase-conjugated anti-mouse IgG and visualize with an enhanced chemiluminescence detection system.

[2] = test system: NOS; experiment: Calcium dependent NOS activity, arginine to citrulline conversion, in myocardial homogenates of TAC hearts; type: in vivo, mouse; details: WT mice, TAC 3 weeks, oral co-treatment
Procedure: as §1

SMILES: Nc1nc2c(c(=O)[nH]1)NC(C(O)C(O)CO)CN2 (centres unmarked) [H4N, tetrahydroneopterin]
- NOS3 dimerization [1]: unaltered
- Ca^2+-dependent NOS activity [2]: unaltered
